Where two headings read alike, the source gives them in different places. One block for each compound: values may come before it.
Tests used:
T. equi = test: In vitro growth inhibition, Babesia fluorescent (SYBR Green I) assay; assay type: cell-based; conditions: 4 days culture, mean of triplicate experiments
Experimental: (§1) Babesia parasite was incubated and maintained at 37 °C in a humidifying chamber under 5% CO2, 5% O2, and 90% N2 atmosphere using a microaerophilic stationary-phase culture for conducting the in vitro experiment. Briefly, Germany strain Babesia divergens was cultured in cattle RBCs in Roswell Park Memorial Institute 1640 (RPMI 1640; Sigma-Aldrich, St. Louis, MO, USA) medium replenished with 40% cattle serum, while culture medium 199 (M199; Sigma-Aldrich) was utilized for the Argentina strain B. bigemina and Texas strain B. bovis, and T. equi USDA strain cultured in cattle RBCs supplemented with 40% cattle serum and horse RBCs maintained in hypoxanthine (MP Biomedicals, Santa Ana, CA, USA; final concentration 13.6 μg/mL) and 40% horse serum, respectively. GIT medium complemented with 40% horse serum was used as a growth medium for the USDA strain of B. caballi cultured in horse RBCs. To ensure free-bacterial contamination, amphotericin B (0.15 μg/mL) (Sigma-Aldrich), streptomycin (60 U/mL) and penicillin G (60 U/mL) were added to all medium.
(§2) The Babesia fluorescent assay was carried out on the in vitro culture as previously reported elsewhere to assess the growth of the inhibitory effectiveness of ATR and the combination treatment with DA, CF, and AV. Briefly, in three separate trials, using two-fold dilution, different concentrations of ATR, DA, CF, and AV were prepared in the culture medium and added in 96-well plates in triplicate with 1% parasitemia for T. equi, B. divergens and B. caballi at 5% HCT, while for B. bigemina and B. bovis using 2.5% HCT. The drug combined efficacy was conducted at the same time with the single-treatment assay in accordance with the Chou–Talalay method. […] On day four of culture, an aliquot (100 µL) of lysis buffer mixed with 0.2μL/mL SG1 was added per well; subsequently, it was covered with aluminum foil to prevent exposure to light. After incubation for 6-h at 37 °C, fluorescence readings were acquired on a spectrofluorimeter (Fluoroskan Ascent, Thermo Fisher Scientific, Oceanside, CA, USA) with a 485 nm excitation wavelength and a 518 nm emission wavelength.
(§3) The IC50 values of ATR, DA, CF, and AV were established from the in vitro growth inhibition by nonlinear regression curve fit on a GraphPad Prism (GraphPad Software Inc., San Diego, CA, USA). […] The significant variations (p < 0.05) among group mean values on parasitemia and one-way ANOVA Tukey’s test in GraphPad Prism version 5.0 was used to analyze hematology profiles in mice infected with B. microti.

B. bovis = test: as above; assay type: cell-based; conditions: 4 days culture, mean of triplicate experiments
Experimental: as §1, §2, §3

B. divergens = test: as above; assay type: cell-based; conditions: 4 days culture, mean of triplicate experiments
Experimental: as §1, §2, §3

B. bigemina = test: as above; assay type: cell-based; conditions: 4 days culture, mean of triplicate experiments
Experimental: as §1, §2, §3

B. caballi = test: as above; assay type: cell-based; conditions: 4 days culture, mean of triplicate experiments
Experimental: as §1, §2, §3

HFFs = test: Cytotoxicity assay (CCK-8 cell viability); assay type: cell-based, human; conditions: for EC50: HFFs, 24 h, CCK-8
Experimental: (§4) Cultures of human foreskin fibroblast (HFF; HFF-1 ATCC® SCRC-1041™), Madin–Darby bovine kidney (MDBK; ECACC) and mouse embryonic fibroblast (NIH/3T3; ATCC® CRL-1658™) cells were retrieved from −80 °C stock and cultured continuously at 37 °C under atmosphere 5% CO2 in our laboratory. The NIH/3T3 and HFFs cells were maintained in Dulbecco Modified Eagle’s Medium (DMEM; Gibco, Grand Island, NY, USA), while MDBK cell line grown in Minimum Essential Medium Eagle (MEM; Gibco). Each medium was treated with 0.5% penicillin/streptomycin (Gibco), 10% inactivated fetal bovine serum and 2 mM glutamine. Every 72 to 96 h, the medium was replaced, and once 80% confluence was reached, the cell collection was performed by sub-culture protocol. To confirm the absence of mycoplasma contamination, 4,6-diamidino-2-phenylindole dihydrochloride stain (Sigma-Aldrich) was used.
(§5) The cell viability test was conducted in a 96-well plate as described elsewhere. Briefly, an aliquot of (100 µL) cells was implanted at a concentration of 5 × 10^4 cells/mL in DMEM or MEM with fetal bovine serum and incubated overnight under atmosphere 5% CO2 at 37 °C for attachment. Using two-fold dilutions, aliquots (10 µL) of drugs were added in triplicate per well to attain final concentrations of 50 to 1000 µM and further incubated for 24 h. The positive control wells containing cells mixed with the medium in 0.4% DMSO, whereas the negative control wells containing culture medium only. After a 24-h incubation, Cell Counting Kits-8 (CCK-8, 10 µL) was added to each well and then plate incubation was conducted for an additional 3 h and a microplate reader was used to assess the absorbance at 450 nm.

[1] = Hematology parameters (HGB, HCT, RBCs) in B. microti-infected treated mice; assay type: in vivo, BALB/c mice; design: HGB Mean: unit not given beside the values; RBCs Mean: unit not given here; conditions: DA 25, AV 20, ATR 25, ATR 12.5+DA 12.5, ATR 12.5+AV 10 mg/kg BW, days 4-8 p.i.
NIH/3T3 cells = test: Cytotoxicity assay (CCK-8 cell viability); assay type: cell-based, mouse; conditions: for EC50: read-out: EC50 NIH/3T3
Experimental: as §4, §5

B. microti = conditions: for peak parasitemia level: peak on day 10; for peak parasitemia level / first day on which parasitemia was not detected by microscopy: B. microti-infected BALB/c mice; for first day on which parasitemia was not detected by microscopy: DA 25, AV 20, ATR 25, ATR 12.5+DA 12.5, ATR 12.5+AV 10 mg/kg BW
[2] = EC50 NIH/3T3 / IC50 B. bigemina
[3] = EC50 NIH/3T3 / IC50 B. divergens
[4] = ATR 25 mg/kg i.p., days 4-8 p.i.

SMILES: COC(=O)c1c(C)cc(OC(=O)c2c(C)cc(O)c(C=O)c2O)c(C)c1O [ATR, Atranorin]
- IC50 (T. equi; 96 h): 71.3 ± 2.7 µM
- IC50 (B. bovis; Bos taurus, 96 h): 98.4 ± 4.2 µM
- IC50 (B. divergens; 96 h): 45.2 ± 5.9 µM
- IC50 (B. bigemina; 96 h): 64.5 ± 3.9 µM
- IC50 (B. caballi; Babesia caballi, 96 h): 46.6 ± 2.5 µM
- Selective Index HFFs (HFFs; EC50 HFFs / IC50 B. bigemina): 11.6
- Selective Index HFFs (HFFs; EC50 HFFs / IC50 B. bovis): 7.6
- Selective Index HFFs (HFFs; EC50 HFFs / IC50 B. caballi): 16.1
- Selective Index HFFs (HFFs; EC50 HFFs / IC50 B. divergens): 16.6
- Selective Index HFFs (HFFs; EC50 HFFs / IC50 T. equi): 10.6
- EC50 (HFFs; Homo sapiens): 750 ± 15 µM
- HCT Mean ([1]; day 0): 46.575%
- HGB Mean ([1]; day 0): 14.8
- RBCs Mean ([1]; day 0): 942.625
- HCT Mean ([1]; day 4): 44.4%
- HGB Mean ([1]; day 4): 13.64
- RBCs Mean ([1]; day 4): 928
- HCT Mean ([1]; day 8): 38%
- HGB Mean ([1]; day 8): 10
- RBCs Mean ([1]; day 8): 610
- HCT Mean ([1]; day 12): 28.925%
- HGB Mean ([1]; day 12): 10.05
- RBCs Mean ([1]; day 12): 557
- HCT Mean ([1]; day 16): 36.65%
- HGB Mean ([1]; day 16): 11.425
- RBCs Mean ([1]; day 16): 637.75
- HCT Mean ([1]; day 20): 39.5%
- HGB Mean ([1]; day 20): 11.95
- RBCs Mean ([1]; day 20): 679.75
- HCT Mean ([1]; day 24): 40.2%
- HGB Mean ([1]; day 24): 12.725
- RBCs Mean ([1]; day 24): 830
- HCT Mean ([1]; day 28): 43.2%
- HGB Mean ([1]; day 28): 13.2
- RBCs Mean ([1]; day 28): 898
- HCT Mean ([1]; day 32): 45.2%
- HGB Mean ([1]; day 32): 14.8
- RBCs Mean ([1]; day 32): 942.625
- HCT Mean ([1]; day 36): 47.2%
- HGB Mean ([1]; day 36): 14.99
- RBCs Mean ([1]; day 36): 982.625
- Selective Index NIH/3T3 (NIH/3T3 cells; [2]): 9.9
- Selective Index NIH/3T3 (NIH/3T3 cells; EC50 NIH/3T3 / IC50 B. bovis): 6.5
- Selective Index NIH/3T3 (NIH/3T3 cells; EC50 NIH/3T3 / IC50 B. caballi): 13.7
- Selective Index NIH/3T3 (NIH/3T3 cells; [3]): 14.0
- Selective Index NIH/3T3 (NIH/3T3 cells; EC50 NIH/3T3 / IC50 T. equi): 9
- EC50 (NIH/3T3 cells; Mus musculus, NIH3T3, 24 h): 638 ± 12 µM
- inhibition of B. microti multiplication in mice (B. microti; [4]): 68.17%
- peak parasitemia level (B. microti; [4]): 19.92%
- first day on which parasitemia was not detected by microscopy (B. microti; days 4-8 p.i.): 26 day p.i.
- toxic signs in mice due to treatment (B. microti; mouse, in vivo): no obvious toxic signs or promoted anemia

- IC50 (T. equi): 0.71 ± 0.05 µM
- IC50 (B. bovis): 0.35 ± 0.06 µM
- IC50 (B. divergens): 0.43 ± 0.05 µM
- IC50 (B. bigemina): 0.68 ± 0.09 µM
- IC50 (B. caballi): 0.02 µM
SMILES: CC(=O)NCC(=O)O.CC(=O)NCC(=O)O.N=C(N)c1ccc(N=NNc2ccc(C(=N)N)cc2)cc1 [DA, diminazene aceturate]
- Selective Index HFFs (HFFs; EC50 HFFs / IC50 B. bigemina): ˃147.1
- Selective Index HFFs (HFFs; EC50 HFFs / IC50 B. bovis): ˃285.7
- Selective Index HFFs (HFFs; EC50 HFFs / IC50 B. caballi): ˃5000
- Selective Index HFFs (HFFs; EC50 HFFs / IC50 B. divergens): ˃232.5
- Selective Index HFFs (HFFs; EC50 HFFs / IC50 T. equi): ˃140.8
- EC50 (HFFs): > 100 µM
- HCT Mean ([1]; day 0): 46.48%
- HGB Mean ([1]; day 0): 15.64
- RBCs Mean ([1]; day 0): 990.625
- HCT Mean ([1]; day 4): 46.18%
- HGB Mean ([1]; day 4): 13.64
- RBCs Mean ([1]; day 4): 954.75
- HCT Mean ([1]; day 8): 46.18%
- HGB Mean ([1]; day 8): 14.72
- RBCs Mean ([1]; day 8): 888.25
- HCT Mean ([1]; day 12): 44.1%
- HGB Mean ([1]; day 12): 13.6
- RBCs Mean ([1]; day 12): 860
- HCT Mean ([1]; day 16): 45.52%
- HGB Mean ([1]; day 16): 14.46
- RBCs Mean ([1]; day 16): 870.25
- HCT Mean ([1]; day 20): 44.14%
- HGB Mean ([1]; day 20): 15.02
- RBCs Mean ([1]; day 20): 880
- HCT Mean ([1]; day 24): 46%
- HGB Mean ([1]; day 24): 15.2
- RBCs Mean ([1]; day 24): 888
- HCT Mean ([1]; day 28): 47%
- HGB Mean ([1]; day 28): 15.64
- RBCs Mean ([1]; day 28): 984.75
- HCT Mean ([1]; day 32): 49%
- HGB Mean ([1]; day 32): 15.94
- RBCs Mean ([1]; day 32): 990.625
- HCT Mean ([1]; day 36): 49%
- HGB Mean ([1]; day 36): 16.64
- RBCs Mean ([1]; day 36): 997.625
- Selective Index NIH/3T3 (NIH/3T3 cells; [2]): ˃147.1
- Selective Index NIH/3T3 (NIH/3T3 cells; EC50 NIH/3T3 / IC50 B. bovis): ˃285.7
- Selective Index NIH/3T3 (NIH/3T3 cells; EC50 NIH/3T3 / IC50 B. caballi): ˃5000
- Selective Index NIH/3T3 (NIH/3T3 cells; [3]): ˃232.5
- Selective Index NIH/3T3 (NIH/3T3 cells; EC50 NIH/3T3 / IC50 T. equi): ˃140.8
- EC50 (NIH/3T3 cells; NIH/3T3 cells, 24 h, CCK-8): > 100 µM
- first day on which parasitemia was not detected by microscopy (B. microti; days 4-8 p.i.): 16 day p.i.
- peak parasitemia level (B. microti; DA at 25 mg/kg, days 4-8 p.i.): 7.94%
